Test results published in the supplement of paper PMC10307832.

Columns and labels:
Assay in all cases: relative viability (nuclei count vs DMSO), 5 days (fraction); higher = more cells survive
[1] = compound: C1=CC2=C(C=C(C(=C2N=C1)O)N=NC3=CC4=C(C=C3)C=C(C=C4)S(=O)(=O)O)S(=O)(=O)O + NC(=O)Nc1cc(-c2cccc(F)c2)sc1C(=O)N[C@H]1CCCNC1 [AZD7762] (partner 0.2 µM)
In short: (§1)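 Lung cancer cell lines in 1536-well plates were dosed by pin tool the day after seeding, either with one drug alone or with a fixed anchor-drug dose plus five library-drug doses (not always all listed) in √10 steps. After 5 days, cells were fixed and their nuclei stained in one step (final 0.05% Triton X-100, 1% formaldehyde, 1 ug/ml Hoechst), then counted on 4× images. Relative viability is the nuclei count in treated wells divided by that in vehicle wells. Values are medians of duplicate plates.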

[2] = compound: C1=CC2=C(C=C(C(=C2N=C1)O)N=NC3=CC4=C(C=C3)C=C(C=C4)S(=O)(=O)O)S(=O)(=O)O + CCNC(=O)c1noc(-c2cc(C(C)C)c(O)cc2O)c1-c1ccc(CN2CCOCC2)cc1 [Luminespib] (partner 0.01 µM)
In short: as §1

[3] = compound: O=C(NC1CCNCC1)c1n[nH]cc1NC(=O)c1c(Cl)cccc1Cl [AT-7519] + CC(=O)c1c(C)c2cnc(Nc3ccc(N4CCNCC4)cn3)nc2n(C2CCCC2)c1=O [Palbociclib] (partner 0.5 µM)
In short: as §1

[4] = compound: C1=CC2=C(C=C(C(=C2N=C1)O)N=NC3=CC4=C(C=C3)C=C(C=C4)S(=O)(=O)O)S(=O)(=O)O + CC(=O)c1c(C)c2cnc(Nc3ccc(N4CCNCC4)cn3)nc2n(C2CCCC2)c1=O [Palbociclib] (partner 0.5 µM)
In short: as §1

Cell Line	relative viability ([1]; first compound 0.08 µM)	relative viability ([1]; first compound 0.253 µM)	relative viability ([1]; first compound 0.8 µM)	relative viability ([1]; first compound 2.53 µM)	relative viability ([1]; first compound 8 µM)	relative viability ([2]; first compound 0.08 µM)	relative viability ([2]; first compound 0.253 µM)	relative viability ([2]; first compound 0.8 µM)	relative viability ([2]; first compound 2.53 µM)	relative viability ([2]; first compound 8 µM)	relative viability ([3]; first compound 0.01 µM)	relative viability ([3]; first compound 0.03162 µM)	relative viability ([3]; first compound 0.3162 µM)	relative viability ([3]; first compound 1 µM)	relative viability ([4]; first compound 0.08 µM)	relative viability ([4]; first compound 0.253 µM)	relative viability ([4]; first compound 0.8 µM)	relative viability ([4]; first compound 2.53 µM)	relative viability ([4]; first compound 8 µM)
NCI-H1993	0.906	0.712	0.702	0.845	0.832	0.83	0.865	0.853	1.09	0.589	0.759	0.638	0.612	0.229	0.625	0.669	0.603	0.687	0.763
RERF-LC-KJ	0.945	0.949	0.924	1.03	0.552	1.38	1.18	1.18	1.37	1.38	1.09	1.13	0.86	0.55	1.31	1.13	1.11	1.06	1.01
NCI-H23	0.186	0.199	0.317	0.177	0.312	0.202	0.21		0.194	0.209	0.594	0.508	0.482	0.292	0.538	0.471	0.448	0.574	0.477
EMC-BAC-2	1.04	1.1	1.09	1.14	0.995	1.25	1.05	1.2	1.24	1.13	0.504	0.506	0.468	0.513	0.528	0.541	0.509	0.519	0.537
NCI-H2405	0.898	0.784	0.738	0.77	0.732	0.891	0.79	0.632	0.827	0.753	0.534	0.523	0.532	0.381	0.517	0.543	0.504	0.575	0.513
NCI-H358	0.375	0.667	0.426	0.544	0.518	0.342	0.382	0.307	0.309	0.214	0.138	0.139	0.108	0.119	0.138	0.134	0.166	0.134	0.135
NCI-H1944	0.643	0.647	0.746	0.519	0.464	0.826	0.696	0.802	0.741	0.721	0.314	0.322	0.292	0.268	0.347	0.323	0.337	0.359	0.327
EPLC-272H	0.204	0.212	0.177	0.311	0.177	0.264	0.385	0.388	0.283	0.383	0.346	0.324	0.302	0.307	0.369	0.31	0.325	0.371	0.316
NCI-H1915	0.735	0.706	0.661	0.688	0.679	0.842	0.773	0.877	0.78	0.82	0.592	0.509	0.608	0.39	0.415	0.523	0.488	0.545	0.494
